Tests used:
[1] = target: T1, 3-hydroxy-3-methylglutaryl coenzyme A (HMG-CoA) reductase (Homo sapiens, UniProt P04035); conditions: delta>gamma>beta>alpha tocotrienol (Tan, 2005); cited from earlier work
T1 sequence (P04035 1-888): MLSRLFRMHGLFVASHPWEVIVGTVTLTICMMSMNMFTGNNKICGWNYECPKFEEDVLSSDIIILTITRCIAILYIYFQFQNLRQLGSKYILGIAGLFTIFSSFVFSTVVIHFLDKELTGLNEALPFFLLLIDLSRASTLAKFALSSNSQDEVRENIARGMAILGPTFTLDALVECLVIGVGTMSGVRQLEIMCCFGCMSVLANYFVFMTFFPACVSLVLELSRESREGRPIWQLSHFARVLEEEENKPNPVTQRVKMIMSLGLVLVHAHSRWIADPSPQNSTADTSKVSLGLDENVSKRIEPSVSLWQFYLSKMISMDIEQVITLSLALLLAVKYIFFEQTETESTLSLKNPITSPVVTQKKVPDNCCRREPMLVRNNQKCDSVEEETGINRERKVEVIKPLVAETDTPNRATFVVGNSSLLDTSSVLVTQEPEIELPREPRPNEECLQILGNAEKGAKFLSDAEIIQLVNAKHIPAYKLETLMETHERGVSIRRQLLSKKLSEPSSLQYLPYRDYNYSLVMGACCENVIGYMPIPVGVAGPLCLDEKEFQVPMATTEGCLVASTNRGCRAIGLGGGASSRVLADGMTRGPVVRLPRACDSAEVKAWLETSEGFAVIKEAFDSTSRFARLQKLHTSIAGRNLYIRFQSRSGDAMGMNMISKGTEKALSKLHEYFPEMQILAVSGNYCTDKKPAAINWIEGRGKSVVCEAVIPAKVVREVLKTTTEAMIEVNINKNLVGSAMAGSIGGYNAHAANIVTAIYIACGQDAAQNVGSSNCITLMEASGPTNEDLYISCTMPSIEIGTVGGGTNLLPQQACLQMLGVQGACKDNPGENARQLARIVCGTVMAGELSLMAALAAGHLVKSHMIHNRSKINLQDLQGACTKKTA

Chlamydia [2] = assay: Chlamydia-infected human mammary tumor cells (TMX2-28) treated with delta tocotrienol; type: cell-based
Procedure: FIG. 7 illustrates Chlamydia-infected human mammary tumor cells treated with delta tocotrienol (630× magnification). Human mammary tumor cells (TMX2-28) were infected with Chlamydia for 72 hours and treated with a 15 μmol/L concentration of delta tocotrienol (FIG. 7A). Controls were left untreated (FIG. 7B).

Chlamydia [3] = assay: Detection of Chlamydia-infected white blood cells in hyperlipidemic patients with delta-tocotrienol supplementation; type: in vivo, human
Procedure: FIG. 6 illustrates detection and quantification of Chlamydia-infected white blood cells in hyperlipidemic patients with delta-tocotrienol supplementation. Buffy coats of hyperlipidemic patients were immunostained, and for each sample, aliquots of 10,000 cells were assessed. A dotplot of a hyperlipidemic patient prior to supplementation with delta-tocotrienol is shown in the left panel, and a dotplot of a hyperlipidemic patient after 2 months of delta-tocotrienol supplementation (100 mg/day) is shown in the right panel.
Flow Cytometry Assessment of WBC: Flow cytometry (FC) quantification of Chlamydia-infected peripheral WBC used PBS rinsed buffy coat (BC) from HP samples. The BC cells were fixed and permeabilized (1% paraformaldehyde and 1% Triton X-100, 10 min. at RT; Aldrich Chemical Company, Inc., Milwaukee, Wis.). BCs were separately incubated for 1 hour with a 1:200 dilution of rabbit anti-Chlamydia primary antibody (Biodesign International, Saco, Me.) followed by a 1 hour incubation with a 1:150 dilution of FITC-conjugated goat anti-rabbit IgG (H+L) (Jackson ImmunoResearch, West Grove, Pa.), PBS rinsed X3, and mono-dispersed by passage through a nylon mesh filter (Lab-Line Instruments Inc, Melrose Park, Ill.). Sufficient WBCs were added to obtain 10,000 cells/tube and samples were analyzed for carriage of Chlamydia-infected cells by FACScan (Becton, Dickinson and Company, Franklin Lakes, N.J.).
Detection of Chlamydia-Infected White Blood Cells (WBC): Smears of whole blood from each 10 ml hyperlipidemic HP blood sample, average donor age 54 years, were fixed with 70% MEOH for subsequent staining. Immunostaining used a 1:125 dilution of rabbit polyclonal anti-Chlamydia EB antibody followed by a 1:125 dilution of TRITC-conjugated goat anti-rabbit antibody (H+L) (Jackson ImmunoResearch, West Grove, Pa.). Slides were incubated at room temperature for 1 hour with each diluted antibody, rinsed, mounted and sealed as described above. Digital images of optical sections through these samples were acquired with a Zeiss LSM 510 Meta Confocal System.
In a clinical study, buffy coats from blood samples drawn both before and after delta-tocotrienol supplementation were immunostained for detection of Chlamydia-infected cells. The samples were tested for LDL levels both before and after delta-tocotrienol supplementation.

C. trachomatis serovar K = assay: Infection of delta tocotrienol-pretreated cell lines (J774A.1, MCF-7, TMX2-28, Hep-2, JY), immunofluorescence with microscopy or flow cytometry; type: cell-based, Chlamydia trachomatis; conditions: 10-30 μmol/L for 6 hours prior to infection
Procedure: Delta tocotrienol is a vitamin E compound also available as dietary supplement. […] Since Chlamydia species enter cells via cholesterol-rich lipid raft domains involved in cholesterol trafficking, tocotrienols in general and hypocholesterolemic delta tocotrienol in particular will reduce infection by Chlamydia. Mouse macrophages (J774A.1), human mammary tumor cells (MCF-7, TMX2-28), human epithelial cells (Hep-2), and human B-lymphocytes (JY) were incubated with delta tocotrienol at concentrations of 10-30 μmol/L for 6 hours prior to infection by C. trachomatis serovar K, a subspecies of Chlamydia that is the primary cause of bacteria-initiated STD. Infections were detected by immunofluorescence staining followed by either microscopy or quantitative flow cytometric analysis. Infection levels in cells pretreated with delta-tocotrienol were decreased by >50%, with concomitant aberrant pathogen development observed with confocal microscopy. The number of large and small inclusions in the delta tocotrienol-versus-control cells was decreased by 3- and 2-fold, respectively. […] The impact of dietary delta tocotrienol on Chlamydia infection in hyperlipidemic patients is being examined in a clinical study. Cholesterol-suppressive delta tocotrienol may have the potential to reduce Chlamydia infection in humans.

delta tocotrienol
potency of cholesterol inhibition among tocotrienol isomers [1]: most potent isomer
apoptosis of Chlamydia-infected, tocotrienol-treated cancer cells (Chlamydia [2]): did not appear to become apoptotic
inclusion size in tocotrienol treated mammary tumor cells (Chlamydia [2]; 15 μmol/L, infected 72 hours, untreated >20 μm): 10-15 μm
Chlamydial Infection Status after Delta-Tocotrienol Supplementation (Chlamydia [3]; Patient 1, status before: negative): negative
Chlamydial Infection Status after Delta-Tocotrienol Supplementation (Chlamydia [3]; Patient 2, status before: positive): negative
Chlamydial Infection Status after Delta-Tocotrienol Supplementation (Chlamydia [3]; Patient 3, status before: strong positive): negative
Chlamydia-infected white blood cells by flow cytometry (FIG. 6) (Chlamydia [3]; hyperlipidemic patient, 2 months supplementation, 100 mg/day, buffy coat, 10,000 cells): reduced the granularity and amount of Chlamydia-infected cells
decrease in number of large inclusions versus control cells (C. trachomatis serovar K): 3 fold
decrease in number of small inclusions versus control cells (C. trachomatis serovar K): 2 fold
decrease of infection levels in pretreated cells (C. trachomatis serovar K): > 50%
